The values that follow come from ChEMBL document CHEMBL3817757, “Unprecedented Binding Mode of Hydroxamate-Based Inhibitors of Glutamate Carboxypeptidase II: Structural Characterization and Biological Activity” (J Med Chem, 2016).

Active and inactive are the calls of the source. No cut-off for these calls is given here.

What is called IC50 is the concentration that inhibits the measured activity by half. One may read the Tmax as the time from dosing to the highest level.

Series [1] concerns the target Glutamate carboxypeptidase 2 (Homo sapiens, UniProt Q04609). In words: Inhibition of human recombinant GCP2 expressed in Schneider 2 cells preincubated for 15 mins using [3H]-NAAG/NAAG as substrate measured after 20 mins by liquid scintillation counting.
Series [2] is described as follows: Tmax in CD1 mouse plasma at 10 mg/kg, po by LC/MS/MS analysis. Format: ADME, organism-based.
For series [3], the system named is Plasma. In words: Plasma concentration in CD1 mouse at 10 mg/kg, po administered as single dose measured after 0.25 to 2 hrs by LC/MS/MS analysis. Format: ADME, organism-based. The conditions noted are these: in vivo.
Series [4] is described as follows: Drug uptake in CD1 mouse sciatic nerve at 10 mg/kg, po administered as single dose measured after 0.25 to 2 hrs by LC/MS/MS analysis. Format: ADME, organism-based. The conditions noted are these: in vivo.
Series [5] can be described thus: Ratio of CD1 mouse sciatic nerve AUC (0 to 2 hrs) to CD1 mouse plasma AUC (0 to 2 hrs). Format: ADME, cell-free. The following applies: in vivo.
For series [6], the system named is Rattus norvegicus. In words: Analgesic activity in Sprague-Dawley rat chronic constrictive injury model of neuropathic pain assessed as increase in paw withdrawal latencies in response to thermal stimulus at 10 mg/kg/day, po administered via oral gavage for 15 days measured from day 4 of compound dosing. Format: functional, organism-based.
The test system of series [7] is Rattus norvegicus. Description: Effect on absolute paw withdrawal latency to thermal stimulus in sham operated Sprague-Dawley rat at 10 mg/kg/day, po administered via oral gavage for 15 days measured over compound dosing. Format: ADME, organism-based. The conditions noted are these: in vivo, 360 h.

Sequence of Glutamate carboxypeptidase 2 (Q04609 whole entry): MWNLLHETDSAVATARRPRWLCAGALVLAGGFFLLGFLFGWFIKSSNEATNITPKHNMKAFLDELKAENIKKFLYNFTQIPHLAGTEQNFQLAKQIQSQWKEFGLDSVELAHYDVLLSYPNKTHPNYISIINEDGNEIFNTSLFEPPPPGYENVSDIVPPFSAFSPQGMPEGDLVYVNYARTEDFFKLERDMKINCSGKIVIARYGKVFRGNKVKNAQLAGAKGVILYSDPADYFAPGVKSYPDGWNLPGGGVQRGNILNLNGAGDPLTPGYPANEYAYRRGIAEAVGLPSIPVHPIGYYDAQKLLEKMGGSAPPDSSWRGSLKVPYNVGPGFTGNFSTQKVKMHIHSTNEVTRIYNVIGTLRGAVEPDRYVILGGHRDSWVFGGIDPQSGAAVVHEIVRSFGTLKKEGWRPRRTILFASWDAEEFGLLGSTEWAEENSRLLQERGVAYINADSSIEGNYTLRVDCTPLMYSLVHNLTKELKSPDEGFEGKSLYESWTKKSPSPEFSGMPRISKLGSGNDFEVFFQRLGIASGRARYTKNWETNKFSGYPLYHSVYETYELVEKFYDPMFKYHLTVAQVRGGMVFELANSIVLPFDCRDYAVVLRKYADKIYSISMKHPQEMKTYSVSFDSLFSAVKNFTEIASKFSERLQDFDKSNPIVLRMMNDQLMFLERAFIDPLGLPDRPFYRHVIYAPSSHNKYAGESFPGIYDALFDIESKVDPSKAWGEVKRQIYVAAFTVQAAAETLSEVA

As for `O=C(CCC(Cc1ccc(C(=O)O)cc1)C(=O)O)NO` (racemic), the IC50 in series [1] came to 63 nM.

In the case of `O=C(CC[C@@H](Cc1ccc(C(=O)O)cc1)C(=O)O)NO`, the IC50 in series [1] stood at 97 nM. Moreover, the Tmax in series [2] is 15 min. Moreover, the concentration in series [3] was 121 nM. The Drug uptake entry in series [4] was “Active”. Besides, the “Ratio AUC” value in series [5] came out at 43%. Moreover, in series [6], the outcome was Active. Besides, the Activity entry in series [7] is “Non-toxic”.

`O=C(CC[C@H](Cc1ccc(C(=O)O)cc1)C(=O)O)NO`: the IC50 in series [1] was determined as 44 nM.
